Counter-ions that a name gives are not always drawn.
These molecules were tested against RIPK1 (recombinant GST-RIPK1 kinase domain, residues 1-327) (Homo sapiens (Human), UniProt Q13546) (assay: RIPK1-ADP-Glo Enzymatic Assay). Settings: ADP-Glo; 25 nM GST-RIPK1, 300 μM ATP; assay lower limit ~25 nM; read-out: RIPK1 V0 Ec50.
Format: biochemical
Summary of the method: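 Luminescent ADP-Glo readout of ATP-to-ADP conversion. Conditions: 25 nM enzyme, 300 μM ATP, 3 μM dephospho-MBP, pH 7.3 HEPES buffer with 20 mM MgCl2; 30 min compound pre-incubation, 150 min reaction. EC50 via four-parameter sigmoidal regression; assay floor ~25 nM.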

Chain of RIPK1 (recombinant GST-RIPK1 kinase domain, residues 1-327) (Q13546 1-327): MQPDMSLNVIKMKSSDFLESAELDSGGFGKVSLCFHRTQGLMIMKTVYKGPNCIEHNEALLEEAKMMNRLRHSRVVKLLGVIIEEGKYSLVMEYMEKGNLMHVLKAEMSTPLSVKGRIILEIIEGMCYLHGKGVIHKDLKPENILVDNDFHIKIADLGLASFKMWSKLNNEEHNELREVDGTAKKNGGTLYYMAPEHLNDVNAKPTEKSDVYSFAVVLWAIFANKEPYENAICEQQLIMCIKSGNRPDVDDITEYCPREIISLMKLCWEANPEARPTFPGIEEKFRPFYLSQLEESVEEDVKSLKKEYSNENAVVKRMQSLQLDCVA

Point of comparison: `Cc1ncc([C@@H]2CC[C@H]3OC4(CCN(C(=O)c5ccccc5)CC4F)C(=O)N32)cc1F` (stereo partly drawn) [Example 2.9, (5′S,7a′R)-1-(benzenecarbonyl)-3-fluoro-5′-(5-fluoro-6-methylpyridin-3-yl)tetrahydro-3′H-spiro[piperidine-4,2′-pyrrolo[2,1-b][1,3]oxazol]-3′-one], EC50 106 nM. Against it:
- O=C1N2[C@@H](CC[C@H]2c2cc(F)cc(F)c2)OC12CCN(c1nccn3cncc13)CC2 [Example 13.14, (5′S,7a′R)-5′-(3,5-difluorophenyl)-1-(imidazo[1,5-a]pyrazin-8-yl)tetrahydro-3′H-spiro[piperidine-4,2′-pyrrolo[2,1-b]oxazol]-3′-one, TFA salt] — 4.6-fold higher, 487 nM
- O=C1N2[C@@H](CC[C@H]2c2cccc(F)c2)OC12CCN(c1ccnc3ccnn13)CC2 [Example 4.123, (5′S,7a′R)-5′-(3-fluorophenyl)-1-(pyrazolo[1,5-a]pyrimidin-7-yl)tetrahydro-3′H-spiro[piperidine-4,2′-pyrrolo[2,1-b] [1,3]oxazol]-3′-one] — lower, < 25 nM
- N#Cc1cnc(N2CC3(C2)O[C@@H]2CC[C@@H](c4ccccc4F)N2C3=O)nc1 [Example 4.119, 2-((5′S,7a′R)-5′-(2-fluorophenyl)-3′-oxotetrahydro-3′H-spiro[azetidine-3,2′-pyrrolo[2,1-b]oxazol]-1-yl)pyrimidine-5-carbonitrile] — 5.1-fold higher, 537 nM
- Cc1cc(N2CCC3(CC2)O[C@@H]2CC[C@@H](c4ccccc4)N2C3=O)nc(C#N)n1 [Example 4.2, 4-methyl-6-[(5′S,7a′R)-3′-oxo-5′-phenyltetrahydro-1H,3′H-spiro[piperidine-4,2′-pyrrolo[2,1-b] [1,3]oxazol]-1-yl]pyrimidine-2-carbonitrile] — lower, < 25 nM
- N#Cc1ccc(N2CCC3(CC2)O[C@@H]2CC[C@@H](c4ccccc4)N2C3=O)n2ncc(F)c12 [Example 4.177, 3-fluoro-7-[(5′S,7a′R)-3′-oxo-5′-phenyltetrahydro-1H,3′H-spiro[piperidine-4,2′-pyrrolo[2,1-b] [1,3]oxazol]-1-yl]pyrazolo[1,5-a] pyridine-4-carbonitrile] — lower, < 25 nM
- N#Cc1ccc(N2CC3(C2)O[C@@H]2CC[C@@H](c4ccccc4)N2C3=O)n2ncnc12 [Example 13.23, 5-((5′S,′7a′R)-3′-oxo-5′-phenyltetrahydro-3′H-spiro[azetidine-3,2′-pyrrolo[2,1-b]oxazol]-1-yl)-[1,2,4]triazolo[1,5-a]pyridine-8-carbonitrile, TFA salt] — 2-fold lower, 54.3 nM
- COc1nc(N2CCC3(CC2)O[C@@H]2CC[C@@H](c4cc(F)cc(F)c4)N2C3=O)ncc1F [Example 4.21, (5′S,7a′R)-5′-(3,5-difluorophenyl)-1-(5-fluoro-4-methoxypyrimidin-2-yl)tetrahydro-3′H-spiro[piperidine-4,2′-pyrrolo[2,1-b] [1,3]oxazol]-3′-one] — lower, < 25 nM
- O=C1N2[C@@H](CC[C@H]2c2ccccc2)OC12CCN(c1nc3ccncc3o1)CC2 [Example 4.158, (5′S,7a′R)-1-([1,3]oxazolo[5,4-c]pyridin-2-yl)-5′-phenyltetrahydro-3′H-spiro[piperidine-4,2′-pyrrolo[2,1-b] [1,3]oxazol]-3′-one] — 2.1-fold lower, 50.8 nM
- CC(C)(C)NC(=O)c1nc(N2CCC3(CC2)O[C@@H]2CC[C@@H](c4cc(F)cc(F)c4)N2C3=O)ncc1F [Example 7.15, N-tert-butyl-2-[(5′S,7a′R)-5′-(3,5-difluorophenyl)-3′-oxotetrahydro-1H,3′H-spiro[piperidine-4,2′-pyrrolo[2,1-b][1,3]oxazol]-1-yl]-5-fluoropyrimidine-4-carboxamide] — 1.6-fold higher, 171 nM
- O=C1N2[C@@H](CC[C@H]2c2ccccc2)OC12CCN(c1cc(F)ccn1)CC2 [Example 4.14, (5′S,7a′R)-1-(4-fluoropyridin-2-yl)-5′-phenyltetrahydro-3′H-spiro[piperidine-4,2′-pyrrolo[2,1-b] [1,3]oxazol]-3′-one] — lower, < 25 nM
- N#Cc1ccc(N2CCC3(CC2)O[C@@H]2CC[C@@H](c4ccccc4)N2C3=O)n2ncc(Cl)c12 [Example 4.182, 3-chloro-7-[(5′S,7a′R)-3′-oxo-5′-phenyltetrahydro-1H,3′H-spiro[piperidine-4,2′-pyrrolo[2,1-b] [1,3]oxazol]-1-yl]pyrazolo[1,5-a] pyridine-4-carbonitrile] — lower, < 25 nM
- N#Cc1cncc([C@@H]2CC[C@H]3SC4(CCN(C(=O)c5ccccc5)CC4)C(=O)N32)c1 [Example 7.4, 5-[(5′S,7a′R)-1-(benzenecarbonyl)-3′-oxotetrahydro-3′H-spiro[piperidine-4,2′-pyrrolo[2,1-b][1,3]thiazol]-5′-yl]pyridine-3-carbonitrile] — within 1.5-fold, 108 nM
- Cc1nc2sccn2c1C(=O)N1CCC2(CC1)O[C@@H]1CC[C@@H](c3cc(F)cc(F)c3)N1C2=O [Example 6.43, (5′S,7a′R)-5′-(3,5-difluorophenyl)-1-(6-methylimidazo[2,1-b][1,3]thiazole-5-carbonyl)tetrahydro-3′H-spiro[piperidine-4,2′-pyrrolo[2,1-b] [1,3]oxazol]-3′-one] — within 1.5-fold, 151 nM
- CC1CN(C(=O)c2ccccc2)CCC12O[C@@H]1CC[C@@H](c3cc(F)cc(F)c3)N1C2=O (single isomer, unassigned) [Example 2.5, (3[S or R],4[R or S], 5′S,7a′R)-1-benzoyl-5′-(3,5-difluorophenyl)-3-methyltetrahydro-3′H-spiro[piperidine-4,2′-pyrrolo[2,1-b]oxazol]-3′-one] — 2.6-fold lower, 40.7 nM
- O=C1N2[C@@H](CC[C@H]2c2ccccc2)OC12CCN(c1cc(F)c(O)cn1)CC2 [Example 4.209, (5′S,7a′R)-1-(4-fluoro-5-hydroxypyridin-2-yl)-5′-phenyltetrahydro-3′H-spiro[piperidine-4,2′-pyrrolo[2,1-b] [1,3]oxazol]-3′-one] — 1.6-fold higher, 166 nM
- CCOc1ncccc1C(=O)N1CCC2(CC1)O[C@@H]1CC[C@@H](c3cc(F)cc(F)c3)N1C2=O [Example 6.38, (5′S,7a′R)-5′-(3,5-difluorophenyl)-1-(2-ethoxypyridine-3-carbonyl)tetrahydro-3′H-spiro[piperidine-4,2′-pyrrolo[2,1-b] [1,3]oxazol]-3′-one] — 8.2-fold higher, 867 nM
- O=C(c1cocn1)N1CCC2(CC1)O[C@@H]1CC[C@@H](c3cc(F)cc(F)c3)N1C2=O [Example 5.54, (5′S,7a′R)-5′-(3,5-difluoro-phenyl)-1-(oxazole-4-car-bonyl)tetrahydro-3′H-spiro [piperidine-4,2′-pyrrolo-[2,1-b]oxazol]-3′-one] — 3.9-fold lower, 27.2 nM
- O=C(c1coc2ccccc12)N1CCC2(CC1)O[C@@H]1CC[C@@H](c3cc(F)cc(F)c3)N1C2=O [Example 5.70] — lower, < 25 nM
- O=C(c1cccc(-c2ccccc2)n1)N1CCC2(CC1)O[C@@H]1CC[C@@H](c3cc(F)cc(F)c3)N1C2=O [Example 6.97, (5′S,7a′R)-5′-(3,5-difluorophenyl)-1-(6-phenylpyridine-2-carbonyl)tetrahydro-3′H-spiro[piperidine-4,2′-pyrrolo[2,1-b] [1,3]oxazol]-3′-one] — lower, < 25 nM
- O=C(c1cc(F)cc(F)c1)N1CCC2(CC1)O[C@@H]1CC[C@@H](c3cc(F)cc(F)c3)N1C2=O [Example 6.48, (5′S,7a′R)-1-(3,5-difluorobenzene-1-carbonyl)-5′-(3,5-difluorophenyl)tetra-hydro-3′H-spiro [piperidine-4,2′-pyrrolo[2,1-b][1,3]oxazol]-3′-one] — 3.1-fold lower, 34.2 nM
- O=C1N2C(CCC2c2c(F)cccc2F)OC12CCN(c1ccnc3ccnn13)CC2 (stereo not shown) [Example 20.8, 5′-(2,6-difluorophenyl)-1-(pyrazolo[1,5-a]pyrimidin-7-yl)tetrahydro-3′H-spiro[piperidine-4,2′-pyrrolo[2,1-b][1,3]oxazol]-3′-one] — lower, < 25 nM
- Cc1cc(F)c(C(=O)N2CCC3(CC2)O[C@@H]2CC[C@@H](c4cc(F)cc(F)c4)N2C3=O)cc1F [Example 5.6, (5′S,7a′R)-1-(2,5-difluoro-4-methylbenzene-1-carbonyl)-5′-(3,5-difluoro-phenyl)tetrahydro-3′H-spiro[piperidine-4,2′-pyrrolo[2,1-b][1,3]oxazol]-3′-one] — lower, < 25 nM
- N#CC1(c2cccc(C(=O)N3CCC4(CC3)O[C@@H]3CC[C@@H](c5cc(F)cc(F)c5)N3C4=O)c2)CC1 [Example 6.71, 1-{3-[(5′S,7a′R)-5′-(3,5-difluorophenyl)-3′-oxotetrahydro-1H,3′H-spiro[piperi-dine-4,2′-pyrrolo-[2,1-b][1,3]oxazole]-1-carbonyl]phenyl} cyclopropane-1-car-bonitrile] — lower, < 25 nM
- O=C1N2[C@@H](CC[C@H]2c2cc(F)cc(F)c2)OC12CCN(c1ncc(F)cn1)CC2 [Example 4.67, (5′S,7a′R)-5′-(3,5-difluorophenyl)-1-(5-fluoropyrimidin-2-yl)tetrahydro-3′H-spiro[piperidine-4,2′-pyrrolo[2,1-b] [1,3]oxazol]-3′-one] — within 1.5-fold, 89.2 nM
- O=C(c1ccnc(C(F)(F)F)c1F)N1CCC2(CC1)O[C@@H]1CC[C@@H](c3cc(F)cc(F)c3)N1C2=O [Example 6.74, (5′S,7a′R)-5′-(3,5-difluorophenyl)-1-[3-fluoro-2-(trifluoro-methyl)pyridine-4-carbonyl]tetrahydro-3′H-spiro[piperidine-4,2′-pyrrolo[2,1-b] [1,3]oxazol]-3′-one] — 3.3-fold lower, 31.9 nM
- O=C1N2[C@@H](CC[C@H]2c2cc(F)cc(F)c2)OC12CCN(c1ccnn3ccnc13)CC2 [Example 13.3, (5′S,7a′R)-5′-(3,5-difluorophenyl)-1-(imidazo[1,2-b]pyridazin-8-yl)tetrahydro-3′H-spiro[piperidine-4,2′-pyrrolo[2,1-b]oxazol]-3′-one, TFA salt] — lower, < 25 nM
- Cc1cc2c(nc1N1CCC3(CC1)O[C@@H]1CC[C@@H](c4ccccc4)N1C3=O)CNC2=O [Example 4.187, (5′S,7a′R)-1-(3-methyl-5-oxo-6,7-dihydro-5H-pyrrolo[3,4-b]pyridin-2-yl)-5′-phenyltetrahydro-3′H-spiro[piperidine-4,2′-pyrrolo[2,1-b] [1,3]oxazol]-3′-one] — 3.4-fold higher, 357 nM

Reference: US12180226B2, “Spirotricycle RIPK1 inhibitors and methods of uses thereof” (Merck Sharp & Dohme LLC, priority 2021, dated 2024)
